The subject of series [1] is HCT116 tumour cells. As to the kind of experiment: TNF-sensitised cell viability assay (CellTiter-Glo), HCT116. Format: cell-based, human. The following applies: for IC50: 10 ng/ml rHuTNF, 72 h. The procedure: (§1) Cell viability of HCT116 tumour cells was measured using the CellTiter-Glo (CTG) luminescent cell viability assay (Promega, Madison, USA) according to the manufacturer's protocol. In short, 1×10^3 HCT116 cells were seeded in a 384-well plate for 24 h and subsequently treated with different concentrations of compounds and 10 ng/ml rHuTNF for 72 h at 37° C. and 5% CO2. After incubation, CTG reagent was added to the wells and cells were lysed for 10 min. Read-out was performed using the Tecan reader with 0.1 sec counting time. TNF-induced cell killing in human PANC1 and murine MC38 tumour cells was measured analogously to the assay in human HCT116 cells, except that for the PANC1 assay 100 ng/ml rHuTNF and for the MC38 assay 100 ng/ml rMuTNF were used.

Series [2] relates to PANC1 tumour cells. Description: TNF-sensitised cell viability assay (CellTiter-Glo), PANC1. Format: cell-based, human. The following applies: for IC50: 100 ng/ml rHuTNF, 72 h. The procedure:
as §1

In series [3] the test system is HCT116 and PANC1. As to the kind of experiment: toxicity against the cell lines in the absence of TNF. Format: cell-based. The following applies: 0 ng/mL TNF, up to concentrations of 10 uM. The procedure: Typically, those compounds of Formula (I) tested were less toxic against the cell lines than the prior art compound PY1 when tested (eg, in the absence of TNF), especially against the human cell lines such as HCT116 (data not shown).
as §1

In series [4] the target is SIK3 (Homo sapiens, UniProt Q9Y2K2). As to the kind of experiment: radiometric protein kinase assay (33PanQinase Activity Assay), SIK3. Format: biochemical. The procedure:
(§2) The IC50s of the compounds against the SIK family of protein-serine/threonine kinases (SIK2 and SIK3) were determined as followed. Briefly, a radiometric protein kinase assay (33PanQinase® Activity Assay) was used for measuring the kinase activity of the two protein kinases. The kinase assays were performed in 96-well FlashPlates™ from PerkinElmer (Boston, Mass., USA) in a 50 uL reaction volume. The reaction cocktail was pipetted in four steps in the following order: • […] (standard buffer/[gamma-33P]-ATP) • 10 uL of ATP solution (in water) • 5 uL of test compound (in 10% DMSO) • 20 uL enzyme/substrate mix
(§3) The following amounts of enzyme and applicable substrate were used per well:
(§4) The reaction cocktails were incubated at 30 °C for 60 minutes. The reaction was stopped with 50 uL of 2% (v/v) H3PO4, plates were aspirated and washed two times with 200 μL 0.9% (w/v) NaCl. Incorporation of 33Pi was determined with a microplate scintillation counter (Microbeta, Wallac). All assays were performed with a BeckmanCoulter/SAGIAN™ Core System.

In series [5] the test system is MC38 tumour cells. As to the kind of experiment: TNF-sensitised cell viability assay (CellTiter-Glo), MC38. Format: cell-based, murine. To be noted: 100 ng/ml rMuTNF, 72 h. Here is the method:
as §1

Series [6] addresses SIK2 (Homo sapiens, UniProt Q9H0K1). As to the kind of experiment: radiometric protein kinase assay (33PanQinase Activity Assay), SIK2. Format: biochemical. Here is the method: as §2, §3, §4
Series [7] relates to MPAL-associated AML cell lines (including MOLM-13 and MV4-11). The following applies: Tarumoto et al 2018; cited from earlier work.
Series [8] has as its system human skin explants. To be noted: topical treatment; Mujahid et al 2017; cited from earlier work.
The nature of series [9]: pharmacokinetic study, plasma level after single po or iv administration. The format is in vivo, male CD1 mice. The following applies: mice. Here is the method: Screening PK properties of compounds of Formula (I) are additionally determined, including plasma and free plasma concentration, as well as Cmax. For example, the free concentration of compound after a dose of eg 30 mg/kg po (per os) administered mice can be determined for certain time points after administrations.
To further investigate PK properties of kinase inhibitors of Formula (I), the compounds are tested for in vivo drug exposure and potency in a full pharmacokinetic study with oral administration (per os, po).
The experimental procedure and the determination of the pharmacokinetic parameters are investigated after single administration of each compound per gavage in male CD1 mice (Intonation Research Laboratories (Hyderabad, India)). The compounds are diluted in 5% DMSO+5% Solutol+90% water. Plasma level (eg sampling 0.25 h; 0.5 h; 1 h; 1.5 h; 2 h; 4 h; 6 h; 12 h; 24 h after drug administration) of the compounds are analysed by LC-MS/MS and pharmacokinetic parameters are determined using non-compartmental analysis and nominal dose levels of eg 30 mg/kg po and 1 mg/kg iv. Three animals are analysed per time point and each mouse is used for three plasma samplings in total.

Series [10] in a line: Mouse liver microsomal stability. To be noted: pH 7.4; mouse liver microsomes, NADPH, 37°C. The format is in vitro ADME. The procedure:
(§5) Briefly, human and liver microsomal stability was determined by pre-incubation of 2.5 uL compound and 75 uL of the respective liver microsomes in potassium phosphate buffer (pH 7.4) at 37° C. After adding of NADPH as cofactor and further incubation at 37° C. for 60 min, acetonitrile containing internal standard was added, and the sample was vortexed for 5 min at 1200 rpm and then centrifuged 10 min at 4000 rpm.
(§6) LC-MS/MS was performed for all assays using a C18 column (50*4.6 mm, 5 um) for the CaCo2 assay, or a C18 column (50*4.6 mm, 4 um) for the other assays. The mobile phases used were 10 mM Ammonium Acetate with 0.1% Formic acid (aqueous) and 100% Acetonitrile (organic).

Series [11] in a line: Murine plasma protein binding (RED method). Format: in vitro ADME. The following applies: mouse. Here is the method: (§7) Human and mice protein plasma binding was determined using the Plasma Protein Binding by RED Method. Briefly, 200 uL of the respective plasma containing the test compound (10 uM) was spiked into the donor well (RED Chamber) of the insert. 350 uL of PBS was spiked into receiver well (white chamber). The plate was incubated at 37° C. in a thermomixer at 400 rpm for 5 hours. The samples were matrix equilibrated with opposite matrix (25 uL blank buffet/Plasma). Matrix matched samples were precipitated with 200 uL of Acetonitrile containing Internal standard. Samples were vortexed at 1000 rpm for 5 min and centrifuged at 4000 rpm for 10 min. The supernatant was diluted 2 folds with water and % bound and unbound protein and % recovery at 5 h was determined by LC-MS/MS.
as §6

The nature of series [12]: Mouse hepatocyte stability. The format is in vitro ADME. The following applies: mouse hepatocytes, 37°C. Here is the method:
(§8) Determination of human and mice hepatocyte stability was conducted as follows. 200 uL of the respective hepatocyte cell suspension (2×10e6/ml) was preincubated at 37° C. for 10 min. Then, 200 uL of a 2 uM working stock of the test compound was added to the hepatocyte cell suspension, and the mixture was further incubated at 37° C. and 500 rpm. The reaction was stopped at 30, 60 and 120 min by precipitating 50 uL of the incubation mixture with 200 uL of acetonitrile. Samples were vortexed for 5 min at 1200 rpm and centrifuged at 4000 rpm for 10 min. Intrinsic clearance and half-life were analysed using LC-MS/MS.
as §6

Series [13] in a line: Kinetic solubility assay. Format: physicochemical. To be noted: aqueous buffer, kinetic from dmso stock; PBS buffer pH 7.4, 1.0% DMSO, 24 h at RT. Here is the method:
The Kinetic solubility assay was conducted as follows. 4 uL compound of the 50 mM DMSO stock was added to deep well plate containing 396 uL PBS buffer (pH 7.4). The DMSO content in the sample was 1.0%, and the compound concentration 500 μM. The sample plate was vortexed at 800 rpm for 24 h at RT on a thermomixer. At the end of the incubation period, the sample plate was centrifuged at 4000 rpm for 10 mins. 3 uL of supernatant was transferred to well containing 297 uL of ISTD in Acetonitrile water:50:50, v/v and analysed in LC-MS/MS against a calibration curve (CC).

A short description of series [14]: Human plasma-protein binding (RED method). The format is in vitro ADME. Here is the method:
as §7, §6

The test system of series [15] is AML. The following applies: administered intraperitoneally; Tarumoto et al 2020; cited from earlier work.
Series [16] is described as follows: Human liver microsomal stability. To be noted: pH 7.4; human liver microsomes, NADPH, 37°C. Format: in vitro ADME. The procedure:
as §5, §6

The subject of series [17] is Caco-2 cells monolayer. As to the kind of experiment: CaCo2 permeability and efflux assay. The format is in vitro ADME. The following applies: CaCo2, apical to basal, 120 min. Here is the method: (§9) To determine apparent permeability of the compounds an assay using a Caco-2 cells monolayer (cultured for 21d) in a 24-well format (poly carbonate high pore density plate with 0.4 μm pore size and a 0.7 cm2 active membrane area; Millipore) was performed as followed. 800 uL of DMEM was added to the basal compartment of the 24 well-plate and 60000 CaCo2 cells/well were seeded in the apical wells and incubated in a CO2 incubator at 37° C. for proliferation of cells. Apical to Basal permeability was determined by adding 400 uL of test compound to the apical well and 800 uL of HBSS buffer with 2% BSA to the basal well. 25 uL of basal sample was collected after 120 min and processed as stated below. Basal to Apical permeability was determined by adding 800 uL of test compound to basal well and 400 uL of HBSS buffer with 2% BSA to apical well. 25 uL of apical sample was collected after 120 min and processed as stated below. The samples were processed by diluting the donor samples 1:1 with HBSS containing 2% BSA and the receiver samples 1:1 with HBSS buffer. Samples were then precipitated with 200 uL of acetonitrile containing internal standard, vortexed for 5 min at 1000 rpm, and centrifuged at 4000 rpm for 20 min. 150 uL of supernatant was diluted with 150 uL of water and submitted for LC-MS/MS analysis, and Bi-directional (A-B and B-A) apparent permeability (Papp) was calculated.
as §6

Series [18] can be described thus: CaCo2 permeability and efflux assay. To be noted: human, Caco-2; CaCo2, mean efflux ratio. Format: in vitro ADME. Here is the method: as §9, §6
A short description of series [19]: Human hepatocyte stability. The format is in vitro ADME. The following applies: human hepatocytes, 37°C. Here is the method: as §8, §6
The mark [20] stands for this setting: ATP 1.0 μM, substrate RBER-CHKtide.

In brackets after ≈: the same amount, converted by molar mass. Read-outs that look alike come from different tables or passages of the source. A value given as a limit tells only on which side of the number the result lay.

Sequence of SIK2 (Q9H0K1 whole entry): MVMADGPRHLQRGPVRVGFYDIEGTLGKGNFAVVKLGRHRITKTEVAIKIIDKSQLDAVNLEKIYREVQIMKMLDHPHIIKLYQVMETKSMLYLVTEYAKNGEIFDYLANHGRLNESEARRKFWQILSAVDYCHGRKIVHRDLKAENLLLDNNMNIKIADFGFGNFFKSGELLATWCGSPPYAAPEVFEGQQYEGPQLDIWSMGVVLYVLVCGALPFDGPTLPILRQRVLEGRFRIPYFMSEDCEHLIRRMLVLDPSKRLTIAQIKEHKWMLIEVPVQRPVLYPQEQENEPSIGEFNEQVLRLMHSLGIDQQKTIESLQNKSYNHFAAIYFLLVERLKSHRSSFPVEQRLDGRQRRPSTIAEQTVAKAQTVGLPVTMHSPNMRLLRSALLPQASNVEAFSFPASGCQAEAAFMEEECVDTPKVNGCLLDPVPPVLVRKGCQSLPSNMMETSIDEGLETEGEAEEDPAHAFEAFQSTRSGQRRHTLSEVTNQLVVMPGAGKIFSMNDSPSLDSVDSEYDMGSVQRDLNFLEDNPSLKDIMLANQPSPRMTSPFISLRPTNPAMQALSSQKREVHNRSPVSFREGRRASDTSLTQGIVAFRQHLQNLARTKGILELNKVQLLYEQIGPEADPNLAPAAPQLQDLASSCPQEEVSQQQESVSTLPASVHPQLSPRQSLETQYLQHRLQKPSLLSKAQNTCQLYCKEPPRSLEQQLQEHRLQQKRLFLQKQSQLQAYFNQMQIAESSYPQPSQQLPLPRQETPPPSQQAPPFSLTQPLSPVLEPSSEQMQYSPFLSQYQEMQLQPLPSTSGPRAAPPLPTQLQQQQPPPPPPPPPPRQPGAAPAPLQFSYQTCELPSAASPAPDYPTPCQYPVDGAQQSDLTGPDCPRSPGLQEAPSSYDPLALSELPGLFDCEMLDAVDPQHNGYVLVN
Sequence of SIK3 (Q9Y2K2 whole entry): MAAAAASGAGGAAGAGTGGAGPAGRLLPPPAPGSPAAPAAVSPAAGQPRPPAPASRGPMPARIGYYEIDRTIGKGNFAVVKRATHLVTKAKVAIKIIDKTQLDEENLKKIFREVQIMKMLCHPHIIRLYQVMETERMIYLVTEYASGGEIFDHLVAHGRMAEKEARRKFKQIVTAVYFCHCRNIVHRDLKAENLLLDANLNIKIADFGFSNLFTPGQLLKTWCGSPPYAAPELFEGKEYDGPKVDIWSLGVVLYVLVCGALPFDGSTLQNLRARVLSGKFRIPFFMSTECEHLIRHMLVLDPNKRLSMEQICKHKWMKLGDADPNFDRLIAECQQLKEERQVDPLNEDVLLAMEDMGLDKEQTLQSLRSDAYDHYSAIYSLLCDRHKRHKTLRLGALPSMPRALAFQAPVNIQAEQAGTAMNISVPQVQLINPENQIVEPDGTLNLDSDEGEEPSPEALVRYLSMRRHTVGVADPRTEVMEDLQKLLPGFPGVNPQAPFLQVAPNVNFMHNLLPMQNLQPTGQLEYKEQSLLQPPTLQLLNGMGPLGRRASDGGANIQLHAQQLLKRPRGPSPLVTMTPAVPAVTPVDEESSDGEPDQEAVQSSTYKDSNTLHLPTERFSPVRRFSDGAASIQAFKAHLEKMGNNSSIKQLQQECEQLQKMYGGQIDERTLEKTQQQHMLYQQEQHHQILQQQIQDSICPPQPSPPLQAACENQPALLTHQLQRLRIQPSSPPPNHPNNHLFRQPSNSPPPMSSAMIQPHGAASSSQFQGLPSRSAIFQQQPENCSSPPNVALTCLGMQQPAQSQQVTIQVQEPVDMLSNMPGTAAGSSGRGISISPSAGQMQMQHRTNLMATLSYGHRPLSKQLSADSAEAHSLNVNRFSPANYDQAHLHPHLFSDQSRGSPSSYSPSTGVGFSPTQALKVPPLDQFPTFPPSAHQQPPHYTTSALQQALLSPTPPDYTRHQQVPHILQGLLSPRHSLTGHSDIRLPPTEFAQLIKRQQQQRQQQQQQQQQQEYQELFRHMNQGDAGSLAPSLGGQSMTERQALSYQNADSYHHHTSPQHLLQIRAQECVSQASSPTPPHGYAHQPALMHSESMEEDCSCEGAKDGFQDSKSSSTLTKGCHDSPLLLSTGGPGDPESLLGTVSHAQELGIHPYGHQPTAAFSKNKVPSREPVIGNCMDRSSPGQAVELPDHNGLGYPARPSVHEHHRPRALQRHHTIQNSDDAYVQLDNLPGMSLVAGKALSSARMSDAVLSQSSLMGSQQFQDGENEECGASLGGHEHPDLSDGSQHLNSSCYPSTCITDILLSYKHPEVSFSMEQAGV

Turning to `COc1ccc(N2C(=O)N(c3c(CF)csc3Cl)Cc3cnc(Nc4ccc(N5CCN(C)CC5)cc4)nc32)nc1` [AA6, 3-(2-chloro-4-(fluoromethyl)thiophen-3-yl)-1-(5-methoxypyridin-2-yl)-7-((4-(4-methylpiperazin-1-yl)phenyl)amino)-3,4-dihydropyrimido[4,5-d]pyrimidin-2(l H)-one], in series [1] (in words), the “sensitisation of HCT116 tumour cells to the cytotoxic effect of TNF compared to PY1” value is “much stronger effect compared to the prior art compound PY1”. The IC50 in series [1] (read-out: HCT116 IC50 (at 10 ng/ml rHuTNF)) is less than 100 nM; in [2] (read-out: PANC IC50 (at 100 ng/ml rHuTNF)), 100 to 500 nM; in series [4] (setting [20]), less than 50 nM; in series [5] (read-out: MC38 IC50 (at 100 ng/ml rMuTNF)) it was 500 to 1000 nM; in [6] (setting [20]) it was less than 50 nM. In addition, the “sensitisation of PANC tumour cells to the cytotoxic effects of TNF compared to PY1” value in [2] (in words) was “stronger effect than PY1”. Further, the “toxicity against the cell lines in the absence of TNF” value in series [3] was “essentially non-toxic”. The “inhibiting SIK3 compared to PY1” value in series [4] (in words) is “superior in inhibiting SIK2 and SIK3 compared to PY1”. The “inhibiting SIK2 compared to PY1” value in series [6] (in words) was “superior in inhibiting SIK2 and SIK3 compared to PY1”.

Consider `COc1ccc(N(C(=O)Nc2c(C)cccc2C)c2cc(Nc3ccc(N4CCN(C)CC4)cc3)ncn2)c(OC)c1` [HG-9-91-01], for which the “viability of MPAL-associated AML cell lines” value in [7] is “strongly decreases viability”. In addition, in series [8], the “eumelanisation in human skin” value is recorded as “able to induce eumelanisation”.

For the compound `COc1ccc(N2C(=O)N(c3c(C)cccc3Cl)Cc3cnc(Nc4ccc(C5CCN(C)CC5)cc4OC)nc32)nc1` [PY1, 3-(2-chloro-6-methylphenyl)-7-((2-methoxy-4-(1-methylpiperidin-4-yl)phenyl)amino)-1-(5-methoxypyridin-2-yl)-3,4-dihydropyrimido[4,5-d]pyrimidin-2(1H)-one, reference compound], the IC50 was in the range of 500 to 1000 nM in [1] (Homo sapiens, HCT-116, read-out: HCT116 IC50 (at 10 ng/ml rHuTNF)); 500 to 1000 nM in series [2] (Homo sapiens, PANC-1, read-out: PANC IC50 (at 100 ng/ml rHuTNF)); 500 to 1000 nM in series [5] (Mus musculus, MC-38, read-out: MC38 IC50 (at 100 ng/ml rMuTNF)). Moreover, the “compound detectable in plasma after 24 h” value in series [9] (1 mg/kg iv) and in series [9] (30 mg/kg po) was “No PY1 (the prior art compound YKL-05-099) was detectable after 24 h” in each case. In addition, the half-life in series [10] amounted to 1.45 h; in series [16], 2.57 h. Moreover, the recovery at 5 h, 10 uM stood at 42% in series [11] and 53% in [14]. Also, the half-life at 1 uM in series [12] amounted to 1.25 h; in series [19] it was 10.7 h. Further, the kinetic solubility at 24 h in series [13] was determined as 3.6 µM (≈ 2.16 µg/mL). Also, the AML progression in-vivo entry in series [15] is reported as “suppressed AML progression in-vivo”. Also, the “A > B(10 EE-06 cm/s)” value in series [17] is recorded as 9.5 10 EE-06 cm/s. The efflux ratio at 120 min in [18] turned out to be 3.2.

The record behind these values is patent publication US20230192701A1, “BICYCLIC KINASE INHIBITORS AND USES THEREOF” (iOmx Therapeutics AG, priority 2020, published 2023).
